Literature values, collected in US20040024065A1, “Novel metabolic targets and markers” (priority 2002, published 2004).

What was measured:
PEMT = conditions: alcohol consumption, before the development of cirrhosis
rat hepatocytes = rat hepatocytes incubated with inhibitor

Row | SMILES | activity of PEMT (PEMT) | PC synthesis via methylation of PE derived from ethanolamine, inhibited (rat hepatocytes) | amount of PE in the cells (rat hepatocytes) | amount of PE secreted into the medium, increase (rat hepatocytes) | secretion of the apoproteins into VLDL, LDL, HDL fractions or fraction with density greater than 1.18 g/ml (rat hepatocytes)
1 | CCO [alcohol] | depresses |  |  |  | 
2 | Nc1nccc2c1ncn2[C@@H]1O[C@H](CO)[C@@H](O)[C@H]1O [3-deazaadenosine] |  | more than 95% | doubled | 70% | not affected
